Like-named read-outs stand apart in the source and are kept apart here.
Assays:
[1] = test system: HEK-293 ATCC CRL-1573 human embryonic kidney cells; assay type: cell-based
Experimental: As part of the CO‐ADD screening, all compounds that show any activity against a microbial strain are evaluated for their cytotoxicity against human embryonic kidney cells (HEK‐293) and for haemolysis against human red blood cells. None of the compounds tested for cytotoxicity (Pt1‐9 and Pd1) caused any significant cell death up to concentrations of 100 μM. […] We have also observed higher IC50 values for the methylated complexes Pt3 and Pt4 against HeLa cells in previous work.[16] […]
(§1) inhibitors as positive control.
(§2) Tamoxifen (Sigma T5648) was used
(§3) as internal control on each plate.
in a Neubauer haemocytometer. […]

human red blood cells = assay: Haemolysis assay; assay type: cell-based; settings: for Haemolysis HC10: concentration inducing 10 % haemolysis; for Haemolysis HC50: concentration inducing 50 % haemolysis
Experimental: As part of the CO‐ADD screening, all compounds that show any activity against a microbial strain are evaluated for their cytotoxicity against human embryonic kidney cells (HEK‐293) and for haemolysis against human red blood cells. None of the compounds tested for cytotoxicity (Pt1‐9 and Pd1) caused any significant cell death up to concentrations of 100 μM. […] We have also observed higher IC50 values for the methylated complexes Pt3 and Pt4 against HeLa cells in previous work.[16]
(§4) The resultant mid-log phase cultures were diluted
(§5) Gram-negative and Gram-positive bacteria, respectively.
(§6) final concentration range of 0.8 – 100 µM.
as §1, §2, §3
in a Neubauer haemocytometer.
incubated for 1 h at 37 °C, without shaking.
HC10 and HC50 (concentration at which 10%
for top, bottom and slope using Prism 8. […]

[2] = test system: Staphylococcus aureus ATCC 25923, MSSA; assay: Antibacterial MIC assay, Gram-positive panel; assay type: cell-based; settings: Table S1 panel; n=4
Excerpt: (§7) Bis(dimethyl-η4)-((1Z,1'E,5Z,5'E)-(1,1'-bi(cyclooctadiene))diplatinum(II) (Pt14) Smiles: C1C=CCCC(=CC1)C1=CCCC=CCC1.C[Pt]C.C[Pt]C
(§8) InChIKey: PHIWIZAHOBWKFJ-HPCBIOCFSA-N
(§9) Link to selected data that was repeated to approve the identity of the compounds: https://dx.doi.org/10.14272/PHIWIZAHOBWKFJ-HPCBIOCFSA-N.1
(§10) ATCC strains were sourced from the American Type Culture Collection and NRS strains from NARSA (Network on Antimicrobial Resistance in Staphylococcus aureus) via BEI Resources (www.beiresources.org), with clinical MSSA and MRSA isolates from Prof Graeme Nimmo, Queensland […]
(§11) Health Central Pathology. […]
(§12) Antibacterial minimum inhibitory concentration (MIC) assay
(§13) Compound Assay Plate Preparation: Compounds were dissolved in DMSO at 10mM (CO-ADD screening) or 4 mM (follow up screening) and were plated in a 2-fold dose response from 20 to 0.156 µM or 200 to 0.006 µM respectively, with a maximum of 0.5% or 1% DMSO, final in the assay […]
(§14) plated in a 2-fold dose response from 200 to 0.006 µM, with a maximum of 1 % DMSO, final in the assay concentration. (in-house screening)
(§15) For all the bacterial assays, each strain was cultured in Cation-adjusted Mueller Hinton broth (CAMHB; Bacto Laboratories 212322) at 37 °C overnight. A sample of each culture was then diluted 40-fold in fresh CAMHB and incubated at 37 °C for 1.5–3 h. The resultant mid-log phase cultures were diluted with CAMHB (CFU mL−1 measured by OD600), then added to each well of the compound-containing plates (384-well non-binding surface (NBS) plates; Corning CLS3640), giving a cell density of 5 × 10^5 CFU mL−1 and a total volume of 50 μL. Plates were covered and incubated at 37 °C for 18 h without shaking. Inhibition of bacterial growth was determined measuring absorbance at 600 nm (OD600), using media only as negative control and bacteria without inhibitors as positive control. MIC values were determined as the lowest concentration at which the growth was inhibited at ≥80%. Colistin sulfate (Sigma C4461) and vancomycin HCl (Sigma 861987) were used as internal controls on each plate for Gram-negative and Gram-positive bacteria, respectively. […]

[3] = test system: Staphylococcus aureus VRS 1, VRSA (VanA); assay: Antibacterial MIC assay, Gram-positive panel; assay type: cell-based; settings: Table S1 panel; n=4
Excerpt: as §7, §8, §9, §10, §11, §12, §13, §14, §15

[4] = test system: Enterococcus faecalis Clinical Isolate, VRE (VanB); assay: Antibacterial MIC assay, Gram-positive panel; assay type: cell-based; settings: Table S1 panel; n=4
Experimental: (§16) Smiles: C1C=CCCC(=CC1)C1=CCCC=CCC1.C[Pt]C.C[Pt]C […]
as §10, §11, §12, §13, §14, §15

[5] = test system: Enterococcus faecium ATCC 35667, type strain; assay: Antibacterial MIC assay, Gram-positive panel; assay type: cell-based; settings: Table S1 panel; n=4
Experimental: as §16, §10, §11, §12, §13, §14, §15

[6] = test system: Staphylococcus epidermidis ATCC 14990, type strain; assay: Antibacterial MIC assay, Gram-positive panel; assay type: cell-based; settings: Table S1 panel; n=4
Experimental: as §16, §10, §11, §12, §13, §14, §15

[7] = test system: Staphylococcus epidermidis NRS 60, VISE; assay: Antibacterial MIC assay, Gram-positive panel; assay type: cell-based; settings: Table S1 panel; n=4
Experimental: as §16, §10, §11, §12, §13, §14, §15

[8] = test system: E. coli lpxC (non‐efficient lipid A production mutant); assay: MIC against E. coli membrane mutants; assay type: cell-based, Escherichia coli
Experimental: as §12
(§17) concentration. (in-house screening)
(§18) Bacto Laboratories 212322) at 37 °C overnight.
as §4, §5, §6
(§19) inhibitors as positive control. […]

[9] = test system: E. coli tolC (efflux pump deficient); assay: MIC against E. coli membrane mutants; assay type: cell-based, Escherichia coli
Experimental: as §12, §17, §18, §4, §5, §6, §19

[10] = test system: B. subtilis ATCC 6051 type strain; assay: MIC in the presence of human serum (serum reversal); assay type: cell-based, Bacillus subtilis; settings: 10% serum
Excerpt: (§20) To obtain some initial insight into the apparent disparity between in vitro and in vivo results, we repeated the MIC experiments against four selected Gram‐positive strains in the presence of 10 % or 50 % human serum (Table S3). Pt1 and Pt2 maintained some antibacterial activity against B. subtilis in the presence of 10 % serum, but a complete loss of activity was observed against MRSA and GISA (50 % serum), and VRE (10 % serum). […] Systemic administration is therefore unlikely to be a suitable administration route for this class of compounds unless an alternative formulation that can prevent serum binding (e. g. by lipid or nanoparticle encapsulation) can be found. […] Further in vivo studies should therefore focus on more suitable disease models. […]
as §12, §17, §18, §4, §5, §6, §19

[11] = test system: S. aureus ATCC 43300 MRSA; assay: as above; assay type: cell-based, Staphylococcus aureus; settings: 50% serum
Excerpt: as §20, §12, §17, §18, §4, §5, §6, §19

S. aureus NRS 17 GISA = assay: as above; assay type: cell-based, Staphylococcus aureus; settings: 50% serum
Excerpt: as §20, §12, §17, §18, §4, §5, §6, §19

[12] = test system: E. faecium ATCC 51559 MDR, VRE; assay: as above; assay type: cell-based, Enterococcus faecium; settings: 10% serum
Excerpt: as §20, §12, §17, §18, §4, §5, §6, §19

[13] = test system: Staphylococcus aureus ATCC 43300 (MRSA); assay: microbe, parasite or virus in culture; assay type: cell-based; settings: for MIC Sa: CO‐ADD screening; for MIC: Table S1 panel, n=2
Experimental: (§21) All compounds submitted to CO‐ADD are initially screened against five bacterial strains (Staphylococcus aureus (MRSA), E. coli, Klebsiella pneumoniae, Pseudomonas aeruginosa, Acinetobacter baumannii) and two fungal strains (Candida albicans, Cryptococcus neoformans) at a single concentration (32 μg/mL or 20 μM) performed as a high‐throughput primary screening.[[11], [17a]] Any compounds that show significant growth inhibition against any of the tested strains at this step are then evaluated in a dose‐response assay against these same strains. […]
as §16, §10, §11, §12, §13, §14, §15

[14] = test system: Acinetobacter baumannii ATCC 19606; assay: Antibacterial MIC assay; assay type: cell-based; settings: CO‐ADD screening
Experimental: as §21, §16, §10, §11, §12, §13, §14, §15

[15] = test system: Escherichia coli ATCC 25922; assay: Antibacterial MIC assay; assay type: cell-based; settings: CO‐ADD screening
Experimental: as §21, §16, §10, §11, §12, §13, §14, §15

[16] = test system: Pseudomonas aeruginosa ATCC 27853; assay: Antibacterial MIC assay; assay type: cell-based; settings: CO‐ADD screening
Experimental: as §21, §16, §10, §11, §12, §13, §14, §15

[17] = test system: Klebsiella pneumoniae ATCC 700603 (ESBL SHV‐18)
Experimental: as §21, §16, §10, §11, §12, §13, §14, §15

[18] = test system: Candida albicans ATCC 90028; assay: Antifungal MIC (CO-ADD screening); assay type: cell-based
Experimental: as §8
(§22) Health Central Pathology. Candida albicans (ATCC 90028, NCCLS 11), Cryptococcus neoformans
as §12, §17, §18

[19] = test system: Cryptococcus neoformans H99 ATCC 208821; assay: Antifungal MIC (CO-ADD screening); assay type: cell-based
Experimental: as §8, §22, §12, §17, §18

[20] = test system: Enterococcus faecalis ATCC 29212, control strain; assay: Antibacterial MIC assay, Gram-positive panel; assay type: cell-based; settings: Table S1 panel; n=4
Experimental: as §16, §10, §11, §12, §13, §14, §15

[21] = test system: Enterococcus faecium Clinical Isolate, VRE (VanA); assay: Antibacterial MIC assay, Gram-positive panel; assay type: cell-based; settings: Table S1 panel; n=4
Experimental: as §16, §10, §11, §12, §13, §14, §15

[22] = test system: Bacillus subtilis ATCC 6051, type strain; assay: Antibacterial MIC assay, Gram-positive panel; assay type: cell-based; settings: Table S1 panel; n=2
Experimental: as §16, §10, §11, §12, §13, §14, §15

[23] = test system: Enterococcus faecium ATCC 51559, MDR, VRE (VanA); assay: Antibacterial MIC assay, Gram-positive panel; assay type: cell-based; settings: Table S1 panel; n=2
Experimental: as §16, §10, §11, §12, §13, §14, §15

[24] = test system: Staphylococcus aureus NRS 17, GISA; assay: Antibacterial MIC assay, Gram-positive panel; assay type: cell-based; settings: Table S1 panel; n=2
Experimental: as §16, §10, §11, §12, §13, §14, §15

Molecule	CC50 [1] [µM]	Haemolysis HC10 (human red blood cells) [µM]	Haemolysis HC50 (human red blood cells) [µM]	MIC [2] [µM]	MIC [3] [µM]	MIC [5] [µM]	MIC [6] [µM]	MIC [7] [µM]	MIC E. coli lpxC ([8]; Table S2) [µM]	MIC E. coli TolC ([9]; Table S2) [µM]	MIC in the presence of human serum [10] [µM]	MIC in the presence of human serum [11] [µM]	MIC in the presence of human serum (S. aureus NRS 17 GISA) [µM]	MIC in the presence of human serum [12] [µM]	MIC Sa [13] [µM]	MIC Ab [14] [µM]	MIC Ec [15] [µM]	MIC Pa [16] [µM]	MIC Kp [17] [µM]	MIC Ca [18] [µM]	also measured
C1=CCCC=CCC1.[CH3][Pt][CH3] [Pt3]	> 100	>100	>100	50	> 200	200	6.25	25	200	> 200	> 200	> 200	> 200	> 200							MIC [4]: 200 µM
C1=CCCC=CCC1.[CH3][Pt][C](F)(C(F)(F)F)C(F)(F)F [Pt6]	> 100	>100	>100	100	200	> 200	100	200		> 200	> 200	> 200	> 200	> 200	10	>20	>20	>20	>20	20	MIC [13]: 6.25 µM; MIC Cn [19]: 20 µM; MIC [20]: > 200 µM; MIC [4]: > 200 µM; MIC [21]: 200 µM
CC(C)C([O][Pt][Cl])/C1=C/CC/C=C\CC1 (centres unmarked) [Pt8]	> 100	>100	>100	25	12.5	100	6.25	25	> 200		200	> 200	> 200	> 200	>20	>20	>20	>20	>20	10	MIC [13]: 3.12 µM; MIC Cn [19]: 1.25 µM; MIC [22]: 50 µM; MIC [20]: 100 µM; MIC [23]: 50 µM; MIC [21]: 100 µM; MIC [24]: 50 µM
CCC1=CCCC=CCC1.[CH3][Pt][C](F)(F)C(F)(F)C(F)(F)C(F)(F)C(F)(F)C(F)(F)C(F)(F)C(F)(F)F [Pt9]	> 100	>100	>100						> 200	> 200	> 200	> 200	> 200	> 200	>20	>20	>20	>20	>20	>20	MIC Cn [19]: 1.25 µM; MIC [23]: 100 µM; MIC [24]: 100 µM
Colistin [reference compound]																					MIC Ab ([14]; control antibiotic): 0.25 µg/mL; MIC Ec ([15]; control antibiotic): 0.125 µg/mL; MIC Pa ([16]; control antibiotic): 0.25 µg/mL; MIC Kp ([17]; CO‐ADD screening, control antibiotic): 0.25 µg/mL; MIC E. coli lpxC ([8]; Table S2, colistin control): 0.03 µg/mL; MIC E. coli TolC ([9]; Table S2, colistin control): 0.03 µg/mL
